Here are results for 35 molecules from patent US11447503B2, “Pyridine carbamates and their use as GLUN2B receptor modulators” (JANSSEN PHARMACEUTICA NV, priority 2019, dated 2022).

Where only a bound is given, the exact number is not on record here.

The target of this test is human GluN1/GluN2B NMDA receptors (Homo sapiens, UniProt Q05586+Q13224). Put plainly: Cell-based calcium flux (FLIPR) assay on cloned human GluN1/GluN2B ion channels expressed in mammalian cells. The conditions noted are these: standard assay; glutamate ~EC40, 10 μM glycine; stable Tet-On cell line. As to the method:
5.3. Biological Assays: Effect of Compounds of Formula (I) on Cloned Human GluN1/GluN2B Ion Channels Expressed in Mammalian Cells
NMDA receptors are ion channels that are highly permeable to Ca^2+ ions, rendering it possible to monitor NMDA receptor function using cell-based calcium flux assay. In this assay, co-agonists glutamate and glycine are added to cells heterologously expressing human GluN1/GluN2B NMDA receptors to initiate cellular Ca^2+ influx. The time course of the changes in intracellular calcium is measured using a fluorescent dye and a FLIPR (Fluorometric Imaging Plate Reader) device.
Twenty four hours before measurements, the expression of the NMDA receptors in the stable cell line is induced with Tet-On inducible system in the presence of a non-selective NMDA receptor blocker. On the day of the experiment, cell culture media is carefully washed and the cells are loaded with Calcium 5 Dye Kit (Molecular Devices) in dye loading buffer containing 137 mM NaCl, 4 mM KCl, 2 mM CaCl2, 0.5 mM MgCl2 (standard assay) or 1.5 mM MgCl2 (HTS assay), 10 mM HEPES and 5 mM D-glucose; pH 7.4. After 1 h incubation at the room temperature, the dye is washed away with the assay buffer (137 mM NaCl (standard assay) or 150 mM (HTS assay), 4 mM KCl (standard assay) or 3 mM (HTS assay), 2 mM CaCl2, 0.01 mM EDTA, 10 mM HEPES and 5 mM D-glucose; pH 7.4) In the FLIPR TETRA reader, various concentrations of the test compounds are added to the cells for 5 min while fluorescence is monitored to detect potential agonist activity. Next, co-agonists, glutamate and glycine are added for another 5 minutes. The concentration of glutamate corresponding to ˜EC40 (standard assay) or EC40 (HTS assay) is used to maximize the assay's signal window and ability to detect NMDA receptor antagonists and negative allosteric modulators. A saturating concentration (10 μM) of glycine is also present in the assay. A non-selective NMDA receptor antagonist, (+)MK-801 is used as a positive control for antagonist activity. The fluorescent signal in the presence of test compounds is quantified and normalized to the signal defined by the appropriate control wells.

Sequence of human GluN1/GluN2B NMDA receptors (Q13224 27-1484, other chains not shown): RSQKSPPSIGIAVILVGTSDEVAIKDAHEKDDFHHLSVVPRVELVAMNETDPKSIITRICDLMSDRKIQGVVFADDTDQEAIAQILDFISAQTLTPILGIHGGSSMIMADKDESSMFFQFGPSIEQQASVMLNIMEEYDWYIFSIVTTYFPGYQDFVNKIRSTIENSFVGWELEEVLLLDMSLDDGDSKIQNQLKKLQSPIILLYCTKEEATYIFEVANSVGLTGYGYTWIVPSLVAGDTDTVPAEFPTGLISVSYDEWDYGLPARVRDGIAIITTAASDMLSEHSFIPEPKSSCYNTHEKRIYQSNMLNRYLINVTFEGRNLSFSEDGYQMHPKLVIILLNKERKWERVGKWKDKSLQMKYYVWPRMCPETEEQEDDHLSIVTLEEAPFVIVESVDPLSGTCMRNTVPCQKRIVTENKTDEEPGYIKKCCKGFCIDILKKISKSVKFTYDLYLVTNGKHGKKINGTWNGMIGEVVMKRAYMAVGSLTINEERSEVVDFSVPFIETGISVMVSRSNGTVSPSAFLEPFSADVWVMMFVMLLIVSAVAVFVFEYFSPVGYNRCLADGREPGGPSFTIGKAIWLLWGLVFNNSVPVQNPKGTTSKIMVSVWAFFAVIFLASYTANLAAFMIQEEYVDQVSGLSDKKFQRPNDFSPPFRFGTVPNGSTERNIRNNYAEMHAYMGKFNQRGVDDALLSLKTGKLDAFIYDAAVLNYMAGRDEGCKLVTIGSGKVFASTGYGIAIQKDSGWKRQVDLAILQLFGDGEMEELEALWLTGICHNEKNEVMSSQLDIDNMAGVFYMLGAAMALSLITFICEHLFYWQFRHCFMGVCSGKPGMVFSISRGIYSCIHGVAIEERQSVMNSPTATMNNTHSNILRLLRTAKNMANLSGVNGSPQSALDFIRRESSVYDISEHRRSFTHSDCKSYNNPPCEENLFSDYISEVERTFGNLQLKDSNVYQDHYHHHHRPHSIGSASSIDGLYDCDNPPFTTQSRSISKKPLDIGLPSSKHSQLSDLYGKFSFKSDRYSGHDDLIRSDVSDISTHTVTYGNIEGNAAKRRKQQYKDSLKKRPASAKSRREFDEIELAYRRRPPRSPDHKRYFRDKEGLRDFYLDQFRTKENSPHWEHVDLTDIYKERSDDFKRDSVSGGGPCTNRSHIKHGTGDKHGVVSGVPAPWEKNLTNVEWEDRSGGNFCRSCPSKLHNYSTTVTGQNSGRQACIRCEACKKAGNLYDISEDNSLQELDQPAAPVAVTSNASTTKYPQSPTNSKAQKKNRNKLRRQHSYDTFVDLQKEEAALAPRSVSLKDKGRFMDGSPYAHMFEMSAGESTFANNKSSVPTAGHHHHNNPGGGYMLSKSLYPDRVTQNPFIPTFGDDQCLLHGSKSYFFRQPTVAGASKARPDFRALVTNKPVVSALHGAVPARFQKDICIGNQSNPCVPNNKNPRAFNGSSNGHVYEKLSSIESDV

What is called IC50 is the concentration needed to halve the response being measured. Take `Cc1ncc(-c2ccc(F)c(Cl)c2)cc1CN1CCCOC1=O` [Example 65, 3-[[5-(3-Chloro-4-fluoro-phenyl)-2-methyl-3-pyridyl]methyl]-1,3-oxazinan-2-one]: the IC50 came out at 30 nM. On to `Cc1cc(-c2cnc(C)c(CN3CCCOC3=O)c2)ccc1F` [Example 66, 3-[[5-(4-Fluoro-3-methyl-phenyl)-2-methyl-3-pyridyl]methyl]-1,3-oxazinan-2-one], for which the half-inhibitory concentration (IC50) was found to be 23 nM.

Turning to `Cc1ncc(-c2ccc(F)c(F)c2)cc1CN1CCCOC1=O` [Example 67, 3-[[5-(3,4-Difluorophenyl)-2-methyl-3-pyridyl]methyl]-1,3-oxazinan-2-one], the IC50 was found to be 344 nM.

For the molecule `Cc1ncc(-c2ccc(F)cc2)cc1CN1CCCOC1=O` [Example 68, 3-[[5-(4-Fluorophenyl)-2-methyl-3-pyridyl]methyl]-1,3-oxazinan-2-one], the IC50 was greater than 3000 nM.

On to `Cc1ncc(-c2cccc(F)c2)cc1CN1CCCOC1=O` [Example 69, 3-[[5-(3-Fluorophenyl)-2-methyl-3-pyridyl]methyl]-1,3-oxazinan-2-one], for which the IC50 stood at 3020 nM. As for `Cc1cc(-c2cnc(C)c(CN3CCCOC3=O)c2)cc(F)c1F` [Example 70, 3-[[5-(3,4-Difluoro-5-methyl-phenyl)-2-methyl-3-pyridyl]methyl]-1,3-oxazinan-2-one], the figure is 13 nM. With `Cc1ncc(-c2ccc(F)c(C)c2F)cc1CN1CCCOC1=O` [Example 71, 3-[[5-(2,4-Difluoro-3-methyl-phenyl)-2-methyl-3-pyridyl]methyl]-1,3-oxazinan-2-one] the figure was 22 nM. With `Cc1ncc(-c2ccc(F)cc2F)cc1CN1CCCOC1=O` [Example 72, 3-[[5-(2,4-Difluorophenyl)-2-methyl-3-pyridyl]methyl]-1,3-oxazinan-2-one] the figure was 2240 nM; with `Cc1ncc(-c2ccc(Cl)c(Cl)c2)cc1CN1CCCOC1=O` [Example 73, 3-[[5-(3,4-Dichlorophenyl)-2-methyl-3-pyridyl]methyl]-1,3-oxazinan-2-one], 19 nM. `Cc1ncc(-c2cccc(C(F)(F)F)c2)cc1CN1CCCOC1=O` [Example 74, 3-[[2-Methyl-5-[3-(Trifluoromethyl)phenyl]-3-pyridyl]methyl]-1,3-oxazinan-2-one]: the IC50 is 50 nM. In the case of `Cc1ncc(-c2ccc(F)c(C(F)(F)F)c2)cc1CN1CCCOC1=O` [Example 75, 3-[[5-[4-Fluoro-3-(trifluoromethyl)phenyl]-2-methyl-3-pyridyl]methyl]-1,3-oxazinan-2-one], the IC50 is 39 nM. Take `Cc1cc(-c2cnc(C)c(CN3CCOC3=O)c2)ccc1F` [Example 76, 3-[[5-(4-Fluoro-3-methyl-phenyl)-2-methyl-3-pyridyl]methyl]oxazolidin-2-one]: the IC50 was found to be 19 nM. With `Cc1ncc(-c2ccc(F)c(C)c2F)cc1CN1CCOC1=O` [Example 77, 3-[[5-(2,4-Difluoro-3-methyl-phenyl)-2-methyl-3-pyridyl]methyl]oxazolidin-2-one] the figure was 13 nM; with `Cc1ncc(-c2ccc(F)c(C(C)(F)F)c2)cc1CN1CCOC1=O` [Example 78, 3-[[5-[3-(1,1-Difluoroethyl)-4-fluoro-phenyl]-2-methyl-3-pyridyl]methyl]oxazolidin-2-one], 32 nM; with `Cc1ncc(-c2ccc(F)c(OC(F)F)c2)cc1CN1CCOC1=O` [Example 79, 3-[[5-[3-(Difluoromethoxy)-4-fluoro-phenyl]-2-methyl-3-pyridyl]methyl] oxazolidin-2-one], 10 nM. As for `Cc1ncc(-c2ccc(F)c(OC(F)F)c2)cc1CN1CC2(CC2)OC1=O` [Example 84, 5-[[5-[3-(Difluoromethoxy)-4-fluoro-phenyl]-2-methyl-3-pyridyl]methyl]-7-oxa-5-azaspiro[2.4]heptan-6-one], the figure is 52 nM; as for `Cc1ncc(-c2ccc(F)c(OC(F)F)c2)cc1CN1CC2(CCC2)OC1=O` [Example 85, 6-[[5-[3-(Difluoromethoxy)-4-fluoro-phenyl]-2-methyl-3-pyridyl]methyl]-8-oxa-6-azaspiro[3.4]octan-7-one], 107 nM.

Take `Cc1ncc(-c2ccc(F)c(OC(F)F)c2)cc1CN1CC(C)(C)OC1=O` [Example 87, 3-[[5-[3-(Difluoromethoxy)-4-fluoro-phenyl]-2-methyl-3-pyridyl]methyl]-5,5-dimethyl-oxazolidin-2-one]: the IC50 was found to be 373 nM. With `Cc1ncc(-c2ccc(F)c(OC(F)F)c2)cc1CN1CCCOC1=O` [Example 88, 3-[[5-[3-(Difluoromethoxy)-4-fluoro-phenyl]-2-methyl-3-pyridyl]methyl]-1,3-oxazinan-2-one] the figure was 22 nM; with `Cc1ncc(-c2ccc(Cl)c(OC(F)F)c2)cc1CN1CCOC1=O` [Example 89, 3-[[5-[4-Chloro-3-(difluoromethoxy)phenyl]-2-methyl-3-pyridyl]methyl]oxazolidin-2-one], 14 nM; with `Cc1ncc(-c2ccc(F)c(C(F)F)c2)cc1CN1CC2(CCC2)OC1=O` [Example 91, 6-[[5-[3-(Difluoromethyl)-4-fluoro-phenyl]-2-methyl-3-pyridyl]methyl]-8-oxa-6-azaspiro[3.4]octan-7-one], 84 nM. As for `Cc1ncc(-c2ccc(F)c(C(F)F)c2)cc1CN1C[C@@H](C)OC1=O` [Example 92, (5R)-3-[[5-[3-(Difluoromethyl)-4-fluoro-phenyl]-2-methyl-3-pyridyl]methyl]-5-methyl-oxazolidin-2-one], the figure is 63 nM; as for `Cc1ncc(-c2ccc(F)c(C(F)F)c2)cc1CN1CC(C)(C)OC1=O` [Example 93, 3-[[5-[3-(Difluoromethyl)-4-fluoro-phenyl]-2-methyl-3-pyridyl]methyl]-5,5-dimethyl-oxazolidin-2-one], 526 nM; as for `Cc1ncc(-c2ccc(F)c(C(F)F)c2)cc1CN1CC2(CC2)OC1=O` [Example 96, 5-[[5-[3-(Difluoromethyl)-4-fluoro-phenyl]-2-methyl-3-pyridyl]methyl]-7-oxa-5-azaspiro[2.4]heptan-6-one], 31 nM. With `Cc1ncc(-c2ccc(Cl)s2)cc1CN1CCOC1=O` [Example 98, 3-[[5-(5-Chloro-2-thienyl)-2-methyl-3-pyridyl]methyl]oxazolidin-2-one] the figure was 187 nM; with `Cc1ncc(-c2ccc(C(F)(F)F)s2)cc1CN1CCOC1=O` [Example 99, 3-[[2-Methyl-5-[5-(trifluoromethyl)-2-thienyl]-3-pyridyl]methyl]oxazolidin-2-one], 16 nM; with `Cc1ncc(-c2ccc(C(F)F)s2)cc1CN1CCOC1=O` [Example 100, 3-[[5-[5-(Difluoromethyl)-2-thienyl]-2-methyl-3-pyridyl]methyl]oxazolidin-2-one], 42 nM.

Consider `COc1ncc(-c2cccc(C(F)(F)F)c2)cc1CN1CCOC1=O` [Example 101, 3-[[2-Methoxy-5-[3-(trifluoromethyl)phenyl]-3-pyridyl]methyl]oxazolidin-2-one], for which the IC50 was 53 nM.

As for `COc1ncc(-c2cc(F)c(F)c(F)c2)cc1CN1CCOC1=O` [Example 102, 3-[[2-Methoxy-5-(3,4,5-trifluorophenyl)-3-pyridyl]methyl]oxazolidin-2-one], the IC50 amounted to 172 nM.

For `COc1ncc(-c2ccc(F)c(C)c2F)cc1CN1CCOC1=O` [Example 103, 3-[[5-(2,4-Difluoro-3-methyl-phenyl)-2-methoxy-3-pyridyl]methyl] oxazolidin-2-one], the IC50 is 46 nM.

Take `COc1ncc(-c2cc(C)cc(F)c2)cc1CN1CCOC1=O` [Example 104, 3-[[5-(3-Fluoro-5-methyl-phenyl)-2-methoxy-3-pyridyl]methyl]oxazolidin-2-one]: the IC50 was 159 nM. As for `COc1ncc(-c2cccc(C)c2)cc1CN1CCOC1=O` [Example 105, 3-[[2-Methoxy-5-(m-tolyl)-3-pyridyl]methyl]oxazolidin-2-one], the figure is 434 nM; as for `COc1ncc(-c2ccc(Cl)c(Cl)c2)cc1CN1CCOC1=O` [Example 106, 3-[[5-(3,4-Dichlorophenyl)-2-methoxy-3-pyridyl]methyl]oxazolidin-2-one], 33 nM; as for `COc1ncc(-c2ccc(Cl)c(OC(F)F)c2)cc1CN1CCOC1=O` [Example 107, 3-[[5-[4-Chloro-3-(difluoromethoxy)phenyl]-2-methoxy-3-pyridyl]methyl]oxazolidin-2-one], 11 nM. As for `COc1ncc(-c2ccc(F)c(Cl)c2)cc1CN1CCOC1=O` [Example 108, 3-[[5-(3-Chloro-4-fluoro-phenyl)-2-methoxy-3-pyridyl]methyl]oxazolidin-2-one], the IC50 was 32 nM.
